Laboratory results taken from publication PMC4506373 (Journal of Ginseng Research, 2014).

Test system: special ginsenosidase type-I
Settings: 0.02 M acetate buffer pH 5.0, 45°C; hydrolysis of 3-O-Glc of Rb2 to C-O

SMILES: CC(C)=CCC[C@](C)(O[C@@H]1O[C@H](CO[C@@H]2OC[C@H](O)[C@H](O)[C@H]2O)[C@@H](O)[C@H](O)[C@H]1O)[C@H]1CC[C@]2(C)[C@@H]1[C@H](O)C[C@@H]1[C@@]3(C)CC[C@H](O[C@@H]4O[C@H](CO)[C@@H](O)[C@H](O)[C@H]4O[C@@H]4O[C@H](CO)[C@@H](O)[C@H](O)[C@H]4O)C(C)(C)[C@@H]3CC[C@]12C [Rb2]
- Km: 20.4 ± 2.1 mM
